Experimental data: patent US11866479B2, “HIV antibody derivatives with dual antiviral and immunomodulatory activities from CD4 and GP41” (priority 2016, dated 2024)

Tests used:
HIV-1 strain NL4-3 = assay: Neutralization assay (TZM-bl, pseudovirus), NL4-3 isolate; type: cell-based
Description: HIV-1 isolates NL4-3, BaL, AC10, SVBP6, SVBP8, SVBP11, SVBP12, SVBP14, SVBP15, SVBP17, SVBP18 and SVBP19 were generated as pseudoviruses using Env expression plasmids and the pSG3 vector. See Sanchez-Palomino S, et al., Vaccine 2011; 29:5250-5259. Cell-free virus neutralization by the antibody derivatives was tested by a standard TZM-bl based assay. See Li, 2005, supra. Briefly, in a 96-well culture plate, 100 of previously diluted antibody derivatives were preincubated with 50 μL of pseudovirus stock, using 200 TCID50 (tissue culture infectious doses) at 37° C. for one hour. Then, 100 containing 10,000 TZM-bl luciferase-reporter target cells per well were added. Plates were cultured at 37° C. and 5% CO2 for 48 hours. […] A luciferase substrate, Britelite Plus (PerkinElmer, Inc., Waltham, Mass., USA), was used for the readout. Non-linear fit of neutralization data was calculated using normalized values fitted to a one site inhibition curve with variable Hill slope. […]
Briefly, in a 96-well culture plate, 100 μL of previously diluted plasma samples were preincubated with 50 μL of pseudovirus stock, using 200 TCID50 at 37° C. for one hour. […] A luciferase substrate, Britelite Plus (PerkinElmer, Inc., Waltham, Mass., USA), was used for the readout. Non-linear fit of neutralization data was calculated using normalized values fitted to a one site inhibition curve with variable Hill slope. […]

HIV-1 strain BaL = assay: Neutralization assay (TZM-bl, pseudovirus), BaL isolate; type: cell-based
Description: HIV-1 isolates NL4-3, BaL, AC10, SVBP6, SVBP8, SVBP11, SVBP12, SVBP14, SVBP15, SVBP17, SVBP18 and SVBP19 were generated as pseudoviruses using Env expression plasmids and the pSG3 vector. […] Cell-free virus neutralization by the antibody derivatives was tested by a standard TZM-bl based assay. […] Briefly, in a 96-well culture plate, 100 of previously diluted antibody derivatives were preincubated with 50 μL of pseudovirus stock, using 200 TCID50 (tissue culture infectious doses) at 37° C. for one hour. Then, 100 containing 10,000 TZM-bl luciferase-reporter target cells per well were added. Plates were cultured at 37° C. and 5% CO2 for 48 hours. Serial dilutions of the antibody derivatives were tested, from 1000 to 0.1 ng/mL. TZM-bl reporter cells were treated with dextran (Sigma-Aldrich, Saint Louis, Mo., USA) to enhance infectivity. A luciferase substrate, Britelite Plus (PerkinElmer, Inc., Waltham, Mass., USA), was used for the readout. Non-linear fit of neutralization data was calculated using normalized values fitted to a one site inhibition curve with variable Hill slope. All statistical analyses and non-linear fitting were performed using the GraphPad Prism v5.0 software.

[1] = tested on: panel of HIV subtype B viruses; assay: Neutralization assay against panel of HIV subtype B viruses (SVBP isolates); type: cell-based, HIV-1
Description: HIV-1 isolates NL4-3, BaL, AC10, SVBP6, SVBP8, SVBP11, SVBP12, SVBP14, SVBP15, SVBP17, SVBP18 and SVBP19 were generated as pseudoviruses using Env expression plasmids and the pSG3 vector. […] Cell-free virus neutralization by the antibody derivatives was tested by a standard TZM-bl based assay. […] Briefly, in a 96-well culture plate, 100 of previously diluted antibody derivatives were preincubated with 50 μL of pseudovirus stock, using 200 TCID50 (tissue culture infectious doses) at 37° C. for one hour. Then, 100 containing 10,000 TZM-bl luciferase-reporter target cells per well were added. Plates were cultured at 37° C. and 5% CO2 for 48 hours. Serial dilutions of the antibody derivatives were tested, from 1000 to 0.1 ng/mL. TZM-bl reporter cells were treated with dextran (Sigma-Aldrich, Saint Louis, Mo., USA) to enhance infectivity. A luciferase substrate, Britelite Plus (PerkinElmer, Inc., Waltham, Mass., USA), was used for the readout. Non-linear fit of neutralization data was calculated using normalized values fitted to a one site inhibition curve with variable Hill slope. All statistical analyses and non-linear fitting were performed using the GraphPad Prism v5.0 software. […]

Substance: MOLECULE-0: CD4-IgG1 fusion protein, SEQ ID NO:11
- blocking the infectivity of NL4-3 (in words) (HIV-1 strain NL4-3): lower neutralizing activity
- blocking the infectivity of BaL (in words) (HIV-1 strain BaL): lower neutralizing activity
- neutralization of panel of HIV subtype B isolates (in words) [1]: unable to neutralize primary isolates at 100 ng/mL
